Measurements as given in patent publication US20240307409A1, “ARGININE METHYLTRANSFERASE INHIBITOR AND USE THEREOF” (Cytosinlab Therapeutics Co., Ltd., priority 2021, published 2024).

Legend:
PRMT1 = PRMT1 (Homo sapiens, UniProt Q99873); assay: PRMT1 enzyme activity test; assay type: biochemical; conditions: 0.5 nM PRMT1, 3H-SAM, peptide
Procedure: PRMT1 enzyme activity test were performed in a buffer prepared on the same day 5 consisting of 10 mMTirs-HCl (pH=8.0), 0.01% Tween-20 and 1 mM DTT. The compounds were prepared to the highest inhibitor concentration ultimately required in the 100× reaction with 100% DMSO and then transferred to one well of a 384-well Echo plate (Echo-eligible 384-well polypropylene microplates 2.0, transparent, flat-bottomed) and sequentially diluted in the next well with a 3-fold dilution of 100% DMSO, and so on, with a total of 10 concentrations based on Precision. 100% DMSO was added to two empty wells to serve as control well without compound and control well without enzyme in the same 384-well Echo plate. 250 nL of compound was transferred from each well of the 384-well Echo plate to a 384-well assay plate (384-well polypropylene storage microplate) via the Echo 550 liquid processor. For wells with compounds and control well without compound, a mixture (15 uL) containing PRMT1 enzyme was added to the 384-well assay plate. For control wells without enzyme, the mixture containing the assay buffer (15 uL) was added instead. The compounds were allowed to incubate with PRMT1 for 15 minutes at room temperature, and then a mixture containing ^3H-SAM and peptide (10 uL) was added to start the reaction (final volume=25 uL). The final concentrations of the components were as follows: 0.5 nM for PRMT1, 0.25 uM for ^3H-SAM, 0.1 uM for the peptide, and 1% DMSO. After 120 min of incubation, the assay was terminated by the addition of non-radiolabeled SAM (5 uL) to a final concentration of 125 uM, which diluted 3H-SAM to a level at which its incorporation into the peptide substrate was no longer detected. 25 μL of the reaction solution from the 384-well assay plate was then transferred to a 384-well detection plate (Streptavidin FlashPlate HTS PLUS, high volume, 384 wells). The biotinylated peptide was allowed to bind to the surface of the antibiotic protein streptavidin for at least 60 minutes at room temperature. The Flashplate was then washed three times with 0.1% Tween-20 in a BioTek plate washer. Plates were read on a microplate counter (MicroBeta2) to measure the amount of ^3H-labeled peptide bound to the surface of the detection plate, measured in counts per minute (cpm).
The raw data were copied from the Reader and the inhibition values were calculated in Excel by Equation (1), Equation (1): Inh %=(CPMmax−CPMcmpd)/(CPMmax−CPMmin)*100, wherein the Max signal was obtained from the enzyme-substrate interaction and the Min signal was obtained from the substrate. IC50 values were obtained by fitting the data through equation (2) using XLFit add-in for Excel version […]. Equation (2): Y=Bottom+(Top-Bottom)/(1+((IC50/X)[…])), wherein, Y represents inhibition percentage and X represents compound concentration.

Toledo cells = assay: Toledo cell proliferation inhibition assay; assay type: cell-based; conditions: Homo sapiens, Toledo, 144 h; six-day assay, CellTiter-Glo
Procedure: • A. Purpose: to determine the effects of compounds on Toledo cells through a six-day cell proliferation assay. • B. Reagents and materials: • 1. Cell culture medium: RPMI 1640+10% FBS • 2. 384-well cell culture plate (Corning, item #3764) • 3. 0.4% Taipan Blue Staining Solution (Thermo Fisher, item #T10282) • 4. cell counting plate (Thermo Fisher, item #C10228) • 5. 50 ml reagent reservoir (Corning, item #4870) • 6. 50 ml conical sterile polypropylene centrifuge tube (Thermo Fisher, item #339653) • 7. Automatic cell counter (Thermo Fisher, item #AMQAX1000) • 8. CellTiter-Glo Luminescent Cell Viability Detection Reagent (Promega, item #G7572) • 9. SpectraMax i3x Multi-Mode Enzyme Labeling Instrument (Megaman Molecular Instruments, item #5024062) • C. Experimental method • 1. Resuspending the cells with a pipette. • 2. 0.4% Taipan blue staining solution and Toledo cells were mixed in equal proportion, and the cells were counted using an automatic cell counter. • 3. Toledo cells were diluted to a final concentration of 2000 cells per well and transferred to a 50 ml reagent reservoir. • 4. Diluted Toledo cells were added to a 384-well cell culture plate, 40 ul per well. • 5. The cells were shortly centrifuged and settled. • 6. The cells were incubated in a 37° C., 5% CO2 cell culture incubator. • 7. The substrate in the CellTiter-Glo Luminescent Cell Viability Detection Reagent was mixed with the solution. • 8. After six days, the 384-well cell culture plate was taken from the incubator and 20 ul of configured CellTiter-Glo reagent was added to each well. • 9. 384-well cell culture platewasmixed in an orbital shaker for 30 minutes. • 10. Signal of luminescence was detected with a SpectraMax i3x multi-mode enzyme labeling instrument.

PRMT1, sequence (Q99873 whole entry): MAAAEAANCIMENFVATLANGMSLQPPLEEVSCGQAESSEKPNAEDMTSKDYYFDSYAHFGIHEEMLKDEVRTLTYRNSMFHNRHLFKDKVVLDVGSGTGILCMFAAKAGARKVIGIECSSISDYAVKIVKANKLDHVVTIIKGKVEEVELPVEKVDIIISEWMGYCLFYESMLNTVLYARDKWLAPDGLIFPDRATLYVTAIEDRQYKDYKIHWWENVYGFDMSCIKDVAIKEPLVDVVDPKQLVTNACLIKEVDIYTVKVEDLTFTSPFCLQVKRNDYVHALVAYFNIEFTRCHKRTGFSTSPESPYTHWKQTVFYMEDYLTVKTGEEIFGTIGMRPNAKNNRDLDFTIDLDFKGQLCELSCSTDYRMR

Structure (SMILES) | IC50 (PRMT1) | IC50 (Toledo cells)
CNCCN(C)Cc1cc(F)ccc1[C@H]1CC[C@@H](c2cccc(C)c2)CC1 [P006] | < 50 nM | 1000 to 5000 nM
CNCCN(C)Cc1ccc(F)cc1C1CCc2ccccc2CC1 [P011] | < 50 nM | < 1000 nM
CCc1cccc(N2CCC(c3cc(F)ccc3CN(C)CCNC)CC2)c1 [P013] | < 50 nM | 1000 to 5000 nM
CCC1CC=C(c2ccccc2CN(C)CCNC)CC1 (centres unmarked) [P016] | < 50 nM | < 1000 nM
CNCCN(C)Cc1cc(F)ccc1C1CCN(c2cccc(C)c2)CC1 [P020] | < 50 nM | < 1000 nM
CNCCN(C)Cc1ccc(F)cc1[C@H]1CC[C@@H](Oc2cc(C(F)(F)F)cc(C(F)(F)F)c2)CC1 [P026] | ≥ 500 nM | 
CNCCN(C)Cc1ccccc1C1CCN(C(C)C)CC1 [P027] | < 50 nM | 1000 to 5000 nM
CNCCN(C)Cc1ccccc1C1=CCN(C(C)C)CC1 [P028] | < 50 nM | ≥ 5000 nM
CNCCN(C)Cc1ccccc1N1CCc2ccccc2C1 [P029] | < 50 nM | 
CNCCN(C)Cc1ccc(F)cc1N1CCCN(c2ccccc2)CC1 [P030] | < 50 nM | ≥ 5000 nM
CNCCN(C)Cc1ccc(F)cc1N1CCC(Oc2cc(C(F)(F)F)cc(C(F)(F)F)c2)CC1 [P032] | ≥ 500 nM | 
CNCCN(C)Cc1ncccc1C#Cc1cccc(C)c1 [P091] | ≥ 500 nM | 
CNCCN(C)Cc1ncccc1C1CCN(C)CC1 [P152] | < 50 nM | 
CNCCN(C)Cc1cc(C(N)=O)ccc1C1CCN(c2cccc(C)c2)CC1 [P220] | 50 to 500 nM | 
CNCCN(C)Cc1ccc2nncn2c1C1CCN(c2cccc(C)c2)CC1 [P232] | 50 to 500 nM | 
CNCCN(C)Cc1ncccc1C1CCN(C(=O)C(C)C)CC1 [P235] | < 50 nM | 

Structure (SMILES) | IC50 (PRMT1) | IC50 (Toledo cells)
CNCCN(C)Cc1ncccc1C1CCN(C(C)(C)O)CC1 [P244] | < 50 nM | 
CNCCN(C)Cc1ncccc1C1CCOCC1 [P245] | < 50 nM | 
CNCCN(C)Cc1ncccc1C1CCCOC1 (centres unmarked) [P246] | ≥ 500 nM | 
CNCCN(C)Cc1ccc2[nH]nnc2c1C1CCN(c2cccc(C)c2)CC1 [P265] | < 50 nM | 
CNCCN(C)Cc1ncccc1N1CCC(OCCOC)CC1 [P274] | < 50 nM | 
CNCCN(C)Cc1ncccc1N1CCC(O)CC1 [P294] | < 50 nM | 
CNCCN(C)Cc1ncccc1N1CCC(OCC(=O)NC)CC1 [P322] | < 50 nM | 
CNCCN(C)C(C)c1ccccc1N1CCc2cc(F)c(F)cc2CC1 (centres unmarked) [P351] | 50 to 500 nM | 
CNCCN(C)Cc1ccc(OC)nc1C1CCN(c2cccc(C)c2)CC1 [P352] | 50 to 500 nM | 
CNCCN(C)Cc1ccc(NC(=O)NC)nc1C1CCN(c2cccc(C)c2)CC1 [P353] | < 50 nM | 
CNCCN(C)Cc1ccc(Nc2ncc[nH]2)nc1C1CCN(c2cccc(C)c2)CC1 [P355] | < 50 nM | 
CNCCN(C)Cc1nc(N)cnc1C1CCN(c2cccc(C)c2)CC1 [P359] | 50 to 500 nM | 
CNCCN(C)Cc1ccc(NCCNCC(=O)OC)nc1C1CCN(c2cccc(C)c2)CC1 [P362] | 50 to 500 nM | 
CNCCN(C)Cc1ccc(NC(=O)N(C)C)nc1C1CCN(c2cccc(C)c2)CC1 [P363] | 50 to 500 nM | 
Cc1cccc(N2CCC(c3nc(N)cnc3CN(C)CCN(C)C)CC2)c1 [P368] | 50 to 500 nM | 
Cc1cccc(N2CCC(c3nc(N)cnc3CN(C)CCN)CC2)c1 [P369] | < 50 nM | 

Now from value to compound, other results behind:

IC50 (PRMT1) | Structure (SMILES) | IC50 (Toledo cells)
< 50 nM | CNCCN(C)Cc1ccc(F)cc1C1CCc2ccc(C(F)(F)F)cc2CC1 (centres unmarked) [P002] | 
< 50 nM | CNCCN(C)Cc1cc(F)ccc1C1CCN(CCc2ccc(C(F)(F)F)cc2)CC1 [P010] | 1000 to 5000 nM
< 50 nM | CNCCN(C)Cc1ccc(F)cc1C1CCN(CCc2ccccc2)CC1 [P012] | < 1000 nM
< 50 nM | CNCCN(C)Cc1ccc(F)cc1C1CCCN(c2ccccc2)CC1 (centres unmarked) [P017] | 1000 to 5000 nM
< 50 nM | CNCCN(C)Cc1ccccc1C1CCCCC1 [P024] | < 1000 nM
< 50 nM | CCC1CCN(c2ccccc2CN(C)CCNC)CC1 [P031] | 1000 to 5000 nM
< 50 nM | CNCCN(C)Cc1ccccc1N1CCCCC1 [P033] | 1000 to 5000 nM
< 50 nM | CNCCN(C)Cc1nc(C)ccc1C1CCN(CCc2ccc(C(F)(F)F)cc2)CC1 [P034] | < 1000 nM
50 to 500 nM | CNCCN(C)Cc1ccccc1N1CCC(N(C)C)CC1 [P035] | ≥ 5000 nM
< 50 nM | CNCCN(C)Cc1ccc(C)nc1C1CCN(c2cc(C)c(F)cc2F)CC1 [P062] | 
< 50 nM | CNCCN(C)Cc1ccc(-c2ncc[nH]2)cc1C1CCN(c2cccc(C)c2)CC1 [P154] | 
50 to 500 nM | CNCCN(C)Cc1ccc(=O)[nH]c1C1CCN(c2cccc(C)c2)CC1 [P211] | 
50 to 500 nM | CNCCN(C)Cc1ncccc1C1CCCCO1 (centres unmarked) [P247] | 
< 50 nM | CNCCN(C)Cc1ncccc1C1CCN(CCOCCOCCOCCOCCOCCN2CCC(c3cccnc3CN(C)CCNC)CC2)CC1 [P257] | 
< 50 nM | CNCCN(C)Cc1ncccc1C1CCN(c2ccnnc2)CC1 [P289] | 
< 50 nM | CNCCN(C)Cc1ncccc1N1CCc2ccc(S(C)(=O)=O)cc2CC1 [P295] | 
< 50 nM | CNCCN(C)Cc1ncccc1C1CCN(c2ccc(C(N)=O)cc2)CC1 [P299] | 
≥ 500 nM | NCCCCc1ccccc1N1CCc2cc(F)c(F)cc2CC1 [P350] | 
50 to 500 nM | CNCCN(C)Cc1ccc(Nc2ccc(F)cc2)nc1C1CCN(c2cccc(C)c2)CC1 [P354] | 
50 to 500 nM | CNCCN(C)Cc1ccc(NS(C)(=O)=O)nc1C1CCN(c2cccc(C)c2)CC1 [P357] | 
< 50 nM | CNCCN(C)Cc1ccc(NC)nc1C1CCN(c2cccc(C)c2)CC1 [P358] | 
50 to 500 nM | CNCCN(C)Cc1ccc(N2CCOC2=O)nc1C1CCN(c2cccc(C)c2)CC1 [P360] | 
< 50 nM | CNCCN(C)Cc1ccc(CN2CCCC2)nc1C1CCN(c2cccc(C)c2)CC1 [P361] | 
50 to 500 nM | CNCCN(C)Cc1ccc(NS(=O)(=O)N(C)C)nc1C1CCN(c2cccc(C)c2)CC1 [P365] | 
< 50 nM | CNCCN(C)Cc1ccc(Nc2nc3ccccc3[nH]2)nc1C1CCN(c2cccc(C)c2)CC1 [P366] | 
< 50 nM | CCOC(=O)c1cnc(Nc2ccc(CN(C)CCNC)c(C3CCN(c4cccc(C)c4)CC3)n2)[nH]1 [P367] | 
